Values of other authors in patent publication US20240041762A1 (Zambon S.p.A., priority 2020, published 2024).

Experiments:
invasive aspergillosis = details: in vivo

| SMILES | activity against invasive aspergillosis (invasive aspergillosis) | ELF exposure as fraction of the plasma concentration (healthy volunteers) | concentration in the alveolar cells with respect to the plasma concentration (healthy volunteers) | concentrations in bronchoalveolar lavage fluid and lung tissue, times lower than plasma (other cases) [times] |
| --- | --- | --- | --- | --- |
| OC(Cn1cncn1)(Cn1cncn1)c1ccc(F)cc1F [Fluconazole] | not active |  |  |  |
| CCC(C)n1ncn(-c2ccc(N3CCN(c4ccc(OCC5COC(Cn6cncn6)(c6ccc(Cl)cc6Cl)O5)cc4)CC3)cc2)c1=O (stereo not shown) [itraconazole] |  | approximately ⅓ | more than double | 10 |
